Data set [1] has as its target T1, CYP3A2 (Rattus norvegicus, UniProt P05183).
T1 sequence (P05183 1-504): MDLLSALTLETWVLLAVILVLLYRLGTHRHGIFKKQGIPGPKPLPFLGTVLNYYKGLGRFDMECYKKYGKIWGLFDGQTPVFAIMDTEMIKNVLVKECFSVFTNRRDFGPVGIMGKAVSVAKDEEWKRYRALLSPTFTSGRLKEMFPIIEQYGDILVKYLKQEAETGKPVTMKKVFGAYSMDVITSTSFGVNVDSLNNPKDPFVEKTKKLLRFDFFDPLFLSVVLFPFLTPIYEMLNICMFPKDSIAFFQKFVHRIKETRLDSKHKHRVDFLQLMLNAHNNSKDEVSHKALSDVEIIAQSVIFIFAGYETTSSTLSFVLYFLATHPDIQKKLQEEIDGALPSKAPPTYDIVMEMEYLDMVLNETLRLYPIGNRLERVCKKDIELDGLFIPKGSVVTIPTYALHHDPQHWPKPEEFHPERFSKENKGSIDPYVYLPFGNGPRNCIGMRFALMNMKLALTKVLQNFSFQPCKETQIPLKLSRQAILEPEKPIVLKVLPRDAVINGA
Put plainly: Inhibition of CYP3A2-mediated dexamethasone 6β-hydroxylation in rat liver microsomes (HPLC). To be noted: for inhibition mode of CYP3A2 enzyme activity: Lineweaver–Burk plot, rat liver microsomes; for Vmax for 6β-hydroxylase / Clint (hepatic intrinsic clearance) for 6β-hydroxylase: dexamethasone substrate. The protocol:
The rates of 6β-hydroxydexamethasone formation were determined using High-Performance Liquid Chromatography (HPLC) technique.
The percentage of organic solvent in the assay was not more than 1% v/v.
The quenched reaction masses were transferred to the new vials and substrate and metabolite were double extracted with ethyl acetate (3 mL) and diethyl ether (3 mL), respectively. The organic extracts were evaporated to dryness. The mobile phase (70% acetonitrile and 30% water, v/v) was used to dissolve the residues. Then, 10 µL of the solution was injected for HPLC analysis.
Analysis of variance (ANOVA) test was also performed (at 0.05 significance level).
Schwarz criterion (SC) and Akaike information criterion (AIC) were acquired from nonlinear regression analysis. IC50 values were calculated by nonlinear regression analysis and GraphPad Prism software was used for this purpose.
The Lineweaver–Burk plot was used to assess the inhibition parameters such as Km, Vmax, and Clint.

Data set [2] addresses fatty acid amide hydrolase. Particulars: hydrolysis of arachidonoylethanolamide; cited from earlier work.
Data set [3] concerns cytokine expression. The arrangement: method as in PMID 31286365. Particulars: in vitro; cited from earlier work.
For data set [4] the following is noted: cited from earlier work.
Data set [5] deals with trimethadione metabolism. To be noted: short-term administration in rats; cited from earlier work.
The subject of data set [6] is ATPase. Set-up: method as in PMID 2992525. To be noted: in vitro, up to 60 min at pH 6.1 or pH 7.4; cited from earlier work.
On the set-up of data set [7]: method as in PMID 29752643. To be noted: several daily oral doses of omeprazole 40 mg; cited from earlier work.
Data set [8] has as its system bufuralol 1′-hydroxylation. Set-up: method as in PMID 15258107. To be noted: cited from earlier work.
Data set [9] has as its system CYP3A4. To be noted: cited from earlier work.
The target in data set [10] is T1, CYP3A2. The arrangement: The pooled liver microsomes from male rats (Sprague Dawley) were purchased from Merck; tissue Merck; host or cells: pooled liver microsomes from male Sprague Dawley rats. Particulars: previous study; cited from earlier work.
Data set [11] deals with COVID-19. The arrangement: method as in PMID 33732750. Particulars: cited from earlier work.
Setting [12] is: male, Sprague Dawley, rat, microsomes, pH 7.4.

Here are results for 5 compounds from PMC9000592 (Molecules, 2022).

Where two headings read alike, the source gives them in different places.

As to `CC(C)Cc1ccc(C(C)C(=O)O)cc1` (stereo not drawn) [Ibuprofen, ibuprofen], the “inhibition mode of CYP3A2 enzyme activity” value (shortened to “inhibition mode”) in [1] is given as “non-competitive”. Also, the “Vmax for 6β-hydroxylase” value in [1] (inhibitor 50 µM) is 0.0116 ± 0.608 × 10^−3 µM^−1∙min^−1. For the same compound, in data set [1] (inhibitor 100 µM), the “Vmax for 6β-hydroxylase” value was 0.0099 ± 0.040 × 10^−3 µM^−1∙min^−1. Moreover, the “Vmax for 6β-hydroxylase” value in data set [1] (inhibitor 200 µM) is 0.0092 ± 0.100 × 10^−3 µM^−1∙min^−1. In data set [1] (setting [12]), this compound gave an inhibition at 40 min, 50 µM of 23 ± 4.34%; an inhibition at 40 min, 100 µM of 34.73 ± 0.336%; an inhibition at 40 min, 200 µM of 38.9 ± 0.476%. In addition, the IC50 in [2] is 270 µM. Further, the “effect on cytokine expression” value in [3] is “no inhibitory effect”. In [4], the “amounts found in plasma” value was 49 to 242 µM. In addition, the Cmax in data set [4] (read-out: peak plasma concentrations (Cmax), after two single doses of 200 mg from two different ibuprofen preparations) was 110 to 150 µM. Moreover, the “effect on trimethadione metabolism” value in data set [5] is “did not affect”.
For the compound `COc1ccc2[nH]c([S+]([O-])Cc3ncc(C)c(OC)c3C)nc2c1` (stereo not drawn) [Omeprazole, omeprazole], in data set [1], the IC50 was 78.35 ± 0.46 µM, affinity was put at a Ki of 39.18 ± 0.23 µM, the “inhibition mode” value is “uncompetitive” and the “inhibition of CYP3A2 at concentrations lower than 30 µM” value is “No inhibition”. Moreover, in data set [1] (inhibitor 30 µM), the “Clint (hepatic intrinsic clearance) for 6β-hydroxylase” value (“Clint (hepatic intrinsic clearance)” for short) was 0.0009 ± 0.091 × 10^−3 µM^−2∙min^−1 and the “Vmax for 6β-hydroxylase” value is 0.0080 ± 0.346 × 10^−3 µM^−1∙min^−1. In addition, in data set [1] (inhibitor 50 µM), the “Clint (hepatic intrinsic clearance)” value is given as 0.0010 ± 0.093 × 10^−3 µM^−2∙min^−1 and the “Vmax for 6β-hydroxylase” value is reported as 0.0062 ± 0.473 × 10^−3 µM^−1∙min^−1. Further, in data set [1] (inhibitor 100 µM), the “Clint (hepatic intrinsic clearance)” value is on record as 0.0011 ± 0.066 × 10^−3 µM^−2∙min^−1 and the “Vmax for 6β-hydroxylase” value is recorded as 0.0042 ± 0.058 × 10^−3 µM^−1∙min^−1. In addition, the “inhibition of the ATPase activity” value in data set [6] was “no substantial inhibition”. The “effect on the pharmacokinetics of roxadustat” value in [7] was “no substantial effect”. Further, in data set [8], the IC50 is above 200 µM. Moreover, in data set [4] (no reference given), the therapeutic plasma concentration is 1.1 to 2.0 µM. Also, in [4] (several daily oral doses of 40 mg), the Cmax was 1207 ng/mL.
`CCC(CC)COC(=O)[C@H](C)N[P@](=O)(OC[C@H]1O[C@@](C#N)(c2ccc3c(N)ncnn23)[C@H](O)[C@@H]1O)Oc1ccccc1` [Remdesivir, remdesivir]: in data set [1], the IC50 came out at 45.007 ± 0.016 µM; the affinity, expressed as Ki, was 22.504 ± 0.008 µM; the “inhibition mode” value is on record as “mixed”; the “inhibition of CYP3A2 at concentrations lower than 30 µM” value was “No inhibition”. For the same compound, in data set [1] (inhibitor 30 µM), the “Clint (hepatic intrinsic clearance)” value is recorded as 0.0006 ± 0.011 × 10^−3 µM^−2∙min^−1 and the “Vmax for 6β-hydroxylase” value is 0.0122 ± 0.306 × 10^−3 µM^−1∙min^−1. Besides, in [1] (inhibitor 50 µM), the “Clint (hepatic intrinsic clearance)” value is 0.0006 ± 0.018 × 10^−3 µM^−2∙min^−1 and the “Vmax for 6β-hydroxylase” value is given as 0.0146 ± 0.586 × 10^−3 µM^−1∙min^−1. In addition, in data set [1] (inhibitor 100 µM), the “Clint (hepatic intrinsic clearance)” value is reported as 0.0010 ± 0.025 × 10^−3 µM^−2∙min^−1 and the “Vmax for 6β-hydroxylase” value is 0.0132 ± 0.153 × 10^−3 µM^−1∙min^−1. In addition, the plasma concentration range in data set [4] (after a single dose of 3–225 mg) is 0.1 to 7.3 µM. In addition, the “inhibition of CYP3A4” value in data set [9] was “weak inhibitor”.
For `CC(=O)Oc1ccccc1C(=O)O` [aspirin], in data set [10], the “inhibition of CYP3A2 isoenzyme activity” value was “weak competitive inhibition”.
`C[C@@H]1C[C@H]2[C@@H]3CCC4=CC(=O)C=C[C@]4(C)[C@@]3(F)[C@@H](O)C[C@]2(C)[C@@]1(O)C(=O)CO` [dexamethasone]: the “reduction of death rate” value in [11] (nonventilated patients with supplemental oxygen) is given as 20%; in data set [11] (ventilated intensive care unit (ICU) patients), 35%.
